In US20190053489A1, “ANTIMICROBIAL COMPOSITION” (NATIONAL UNIVERSITY CORPORATION TOKYO MEDICAL AND DENTAL …, priority 2016, published 2019):

System: MRSA
Test: Observation of morphological change in MRSA by electron microscope
Assay type: cell-based, Methicillin-Resistant Staphylococcus Aureus (MRSA)
Protocol: First, the morphological change in MRSA was observed by using a scanning electron microscope. This observation with a scanning electron microscope was carried out as follows: osmium coating (4 nm) was performed as the conductive treatment, and a low-acceleration ultra-high resolution scanning electron microscope (SU 9000 manufactured by Hitachi High-Technologies Corporation (accelerating voltage: 1 kV)) was used. In addition, the samples were MRSA added with physiological saline and MRSA added with a lysozyme-chitosan complex with a concentration of 0.2% by mass.
Next, the morphological change in MRSA was observed by using a transmission electron microscope. This observation with a transmission electron microscope was carried out as follows: the sample was sliced in 50 nm with a diamond knife as the pretreatment and was stained with uranium acetate and lead citrate, and a transmission electron microscope (JEM-1400 manufactured by JEOL Ltd.) was used. In addition, the samples were MRSA added with physiological saline and MRSA added with a lysozyme-chitosan complex with a concentration of 0.2% by mass.
Observation was carried out with a scanning electron microscope for the morphological changes in MRSA and pseudomonas aeruginosa treated with the lysozyme-chitosan complex, lysozyme alone, chitosan alone, and the mixture of lysozyme and chitosan (treatment time: 2 hours). This observation with a scanning electron microscope was carried out in the same manner as Example 8 described above: osmium coating (4 nm) was performed as the conductive treatment, and a low-acceleration ultra-high resolution scanning electron microscope (SU 9000 manufactured by Hitachi High-Technologies Corporation (accelerating voltage: 1 kV)) was used. In addition, the samples were MRSA or pseudomonas aeruginosa added with physiological saline, a lysozyme-chitosan complex with a concentration of 0.1% by mass, lysozyme of 0.05% by mass, chitosan of 0.05% by mass, and a mixture of lysozyme and chitosan, each with 0.05% by mass.

lysozyme-chitosan complex: complex of lysozyme and water-soluble chitosan (molecular weight 14000 Da) bound to each other through the Maillard reaction
morphological change in MRSA, scanning electron microscope, treatment time 2 hours (complex 0.1% by mass, lysozyme 0.05%, chitosan 0.05%, mixture each 0.05%, FIG. 16): the form of MRSA has changed | morphological change in MRSA, scanning electron microscope (complex 0.2% by mass, FIG. 13): fibrous adhesions have appeared on the outer surface of MRSA | morphological change in MRSA, transmission electron microscope (complex 0.2% by mass, FIG. 14): fibrous structures (DNA) inside MRSA have disappeared
